# Where “and” joins values, the source holds several entries; their conditions need not be identical. Equal values may be shown once.
# What was measured:
# [1] = test system: transgenic T2 soybean plants; assay: Soybean greenhouse spray test, T2 plants at V2-V3 stage, injury 0-9 point scale 1 or 2 weeks after treatment (Tables 7C-7E); format: in vivo, Glycine max; details: 2 week after treatment
# Method: (§1) Soybean cv Jake was transformed as previously described by Siminszky et al., Phytochem Rev. 5:445-458 (2006). After regeneration, transformants were transplanted to soil in small pots, placed in growth chambers (16 hr day/8 hr night; 25° C. day/23° C. night; 65% relative humidity; 130-150 microE m-2 s-1) and subsequently tested for the presence of the T-DNA via Taqman analysis. After a few weeks, healthy, transgenic positive, single copy events were transplanted to larger pots and allowed to grow in the growth chamber. An optimal shoot for cutting was about 3-4 inches tall, with at least two nodes present. Each cutting was taken from the original transformant (mother plant) and dipped into rooting hormone powder (indole-3-butyric acid, IBA). The cutting was then placed in oasis wedges inside a bio-dome. The mother plant was taken to maturity in the greenhouse and harvested for seed. Wild type cuttings were also taken simultaneously to serve as negative controls. The cuttings were kept in the bio-dome for 5-7 days and then transplanted to 3 inch pots and then acclimated in the growth chamber for two more days. […] Other herbicides, such as AHAS (ALS—Acetolactate Synthase) inhibiting herbicides were also tested in a similar fashion for confirming cross resistance to other modes of action: Tritosulfuron, Florasulam, Metsulfuron, Rimsulfuron. Herbicide injury evaluations were taken at 2, 7, 14 and 21 days after treatment.
# (§2) • 0 No Injury • 1 Minimal injury, only a few patches of leaf injury or chlorosis. • 2 Minimal injury with slightly stronger chlorosis. Overall growth points remain undamaged. • 3 Slightly stronger injury on secondary leaf tissue, but primary leaf and growth points are still undamaged. • 4 Overall plant morphology is slightly different, some chlorosis and necrosis in secondary growth points and leaf tissue. Stems are intact. Regrowth is highly probable within 1 week. • 5 Overall plant morphology is clearly different, some chlorosis and necrosis on a few leaves and growth points, but primary growth point is intact. Stem tissue is still green. Regrowth is highly probably within 1 week. • 6 Strong injury can be seen on the new leaflet growth. Plant has a high probability to survive only through regrowth at different growth points. Most of the leaves are chlorotic/necrotic but stem tissue is still green. May have regrowth but with noticeable injured appearance. • 7 Most of the active growth points are necrotic. There may be a single growth point that could survive and may be partially chlorotic or green and partially necrotic. Two leaves may still be chlorotic with some green; the rest of the plant including stem is necrotic. • 8 Plant will likely die, and all growth points are necrotic. One leaf may still be chlorotic with some green. The remainder of the plant is necrotic. • 9 Plant is dead. • * Not tested
# [2] = test system: transgenic soybean cv Jake; assay: Soybean greenhouse spray test, clones from T0 individuals, injury 0-9 point scale 1 week after treatment (Table 7A); format: in vivo, Glycine max
# Method: as §1, §2
compound,measurement,setting,value
CCS(=O)(=O)c1cccnc1S(=O)(=O)NC(=O)Nc1nc(OC)cc(OC)n1 [Rimsulfuron],injury on a 0-9 point scale,"[1]; Bradi_1g07930.1 (Event 1), 10 g ai/ha",6.0
same,injury on a 0-9 point scale,"[1]; Bradi_1g07930.1 (Event 1), Rimsulfuron 1.25 g ai/ha",6.0
same,injury on a 0-9 point scale,"[1]; Bradi_1g07930.1 (Event 1), Rimsulfuron 2.5 g ai/ha",6.0
same,injury on a 0-9 point scale,"[1]; Bradi_1g07930.1 (Event 1), Rimsulfuron 5 g ai/ha",6.0
same,injury on a 0-9 point scale,"[1]; R128A_F420V (Event 1), 10 g ai/ha",7.5
same,injury on a 0-9 point scale,"[1]; R128A_F420V (Event 1), Rimsulfuron 1.25 g ai/ha",6.5
same,injury on a 0-9 point scale,"[1]; R128A_F420V (Event 1), Rimsulfuron 5 g ai/ha",7.0
same,injury on a 0-9 point scale,"[1]; R128A_F420V (Event 2), 10 g ai/ha",7.0
same,injury on a 0-9 point scale,"[1]; R128A_F420V (Event 2), Rimsulfuron 1.25 g ai/ha",6.0
same,injury on a 0-9 point scale,"[1]; R128A_F420V (Event 2), Rimsulfuron 2.5 g ai/ha",7.0
same,injury on a 0-9 point scale,"[1]; R128A_F420V (Event 2), Rimsulfuron 5 g ai/ha",7.0
same,injury on a 0-9 point scale,"[1]; R128A_F420V + Bradi_1g07930.1 (Event 1), 10 g ai/ha",4.3
same,injury on a 0-9 point scale,"[1]; R128A_F420V + Bradi_1g07930.1 (Event 1), Rimsulfuron 1.25 g ai/ha",4.0
same,injury on a 0-9 point scale,"[1]; R128A_F420V + Bradi_1g07930.1 (Event 1), Rimsulfuron 2.5 g ai/ha",3.5
same,injury on a 0-9 point scale,"[1]; R128A_F420V + Bradi_1g07930.1 (Event 1), Rimsulfuron 5 g ai/ha",3.3
same,injury on a 0-9 point scale,"[1]; R128A_F420V + Bradi_1g07930.1 (Event 2), 10 g ai/ha",5.0
same,injury on a 0-9 point scale,"[1]; R128A_F420V + Bradi_1g07930.1 (Event 2), Rimsulfuron 1.25 g ai/ha",3.0
same,injury on a 0-9 point scale,"[1]; R128A_F420V + Bradi_1g07930.1 (Event 2), Rimsulfuron 2.5 g ai/ha",4.0
same,injury on a 0-9 point scale,"[1]; R128A_F420V + Bradi_1g07930.1 (Event 2), Rimsulfuron 5 g ai/ha",4.5
same,injury on a 0-9 point scale,"[1]; wild type, 10 g ai/ha",8.5
same,injury on a 0-9 point scale,"[1]; wild type, Rimsulfuron 1.25 g ai/ha",8.0
same,injury on a 0-9 point scale,"[1]; wild type, Rimsulfuron 2.5 g ai/ha",8.5
same,injury on a 0-9 point scale,"[1]; wild type, Rimsulfuron 5 g ai/ha",8.3
"CC(C)N(C)S(=O)(=O)NC(=O)c1cc(-n2c(=O)cc(C(F)(F)F)n(C)c2=O)c(F)cc1Cl [Saflufenacil, saflufenacil]",injury (0-9 point scale) 1 week after treatment,"[2]; Saflufenacil 12.5 g ai/ha, GOI AmtuPPX2L_F420L stacked with Bradi_1g07930.1_Zm",6 and 5 and 0 (2×) and 1 (2×)
same,injury (0-9 point scale) 1 week after treatment,"[2]; Saflufenacil 12.5 g ai/ha, GOI Bradi_1g07930.1_Zm",4 (2×) and 1 and 6 (3×) and 0
same,injury (0-9 point scale) 1 week after treatment,"[2]; Saflufenacil 25 g ai/ha, GOI AmtuPPX2L_F420L stacked with Bradi_1g07930.1_Zm",6 and 0 (2×) and 2 (2×)
same,injury (0-9 point scale) 1 week after treatment,"[2]; Saflufenacil 25 g ai/ha, GOI Bradi_1g07930.1_Zm",6 (4×) and 5 (2×) and 1
same,injury (0-9 point scale) 1 week after treatment,"[2]; Saflufenacil 50 g ai/ha, GOI AmtuPPX2L_F420L stacked with Bradi_1g07930.1_Zm",5 (2×) and 6 and 1 (3×) and 2 (3×)
same,injury (0-9 point scale) 1 week after treatment,"[2]; Saflufenacil 50 g ai/ha, GOI AmtuPPX2L_R128A_F420L stacked with Bradi_1g07930.1_Zm",1
same,injury (0-9 point scale) 1 week after treatment,"[2]; Saflufenacil 50 g ai/ha, GOI AmtuPPX2L_R128A_F420V stacked with Bradi_1g07930.1_Zm",1 (4×) and 2 (2×) and 6 and 4 and 3
same,injury (0-9 point scale) 1 week after treatment,"[2]; Saflufenacil 50 g ai/ha, GOI Bradi_1g07930.1_Zm",6 (2×) and 5
same,injury (0-9 point scale) 1 week after treatment,"[2]; Saflufenacil 100 g ai/ha, GOI AmtuPPX2L_F420L stacked with Bradi_1g07930.1_Zm",3 and 6 and 2
same,injury (0-9 point scale) 1 week after treatment,"[2]; Saflufenacil 100 g ai/ha, GOI AmtuPPX2L_R128A_F420L stacked with Bradi_1g07930.1_Zm",0 and 3 and 1 (3×) and 2 (4×) and 6 and 4
same,injury (0-9 point scale) 1 week after treatment,"[2]; Saflufenacil 100 g ai/ha, GOI AmtuPPX2L_R128A_F420V stacked with Bradi_1g07930.1_Zm",3 (5×) and 0 and 1 and 7 and 2 and 5 and 4
same,injury (0-9 point scale) 1 week after treatment,"[2]; Saflufenacil 100 g ai/ha, GOI Bradi_1g07930.1_Zm",8 and 6
same,injury (0-9 point scale) 1 week after treatment,"[2]; Saflufenacil 200 g ai/ha, GOI AmtuPPX2L_F420L stacked with Bradi_1g07930.1_Zm",2 (2×) and 6
same,injury (0-9 point scale) 1 week after treatment,"[2]; Saflufenacil 200 g ai/ha, GOI AmtuPPX2L_R128A_F420L stacked with Bradi_1g07930.1_Zm",1 and 5 (2×) and 3 (2×) and 2 (4×) and 0 and 4
same,injury (0-9 point scale) 1 week after treatment,"[2]; Saflufenacil 200 g ai/ha, GOI AmtuPPX2L_R128A_F420V stacked with Bradi_1g07930.1_Zm",2 (4×) and 5 (2×) and 3 (2×) and 7 and 6 and 8
COc1nc(NC(=O)NS(=O)(=O)c2ccccc2C(F)(F)F)nc(C(F)(F)F)n1 [Tritosulfuron],injury on a 0-9 point scale,"[1]; Bradi_1g07930.1 (Event 1), 4.375 g ai/ha",1.5
same,injury on a 0-9 point scale,"[1]; Bradi_1g07930.1 (Event 1), 8.75 g ai/ha",0.5
same,injury on a 0-9 point scale,"[1]; Bradi_1g07930.1 (Event 1), 17.5 g ai/ha",1.7
same,injury on a 0-9 point scale,"[1]; Bradi_1g07930.1 (Event 1), 35 g ai/ha",2.3
same,injury on a 0-9 point scale,"[1]; Bradi_1g07930.1 (Event 1), 70 g ai/ha",1.5
same,injury on a 0-9 point scale,"[1]; Bradi_1g07930.1 (Event 1), 140 g ai/ha",0.3
same,injury on a 0-9 point scale,"[1]; R128A_F420V (Event 1), 4.375 g ai/ha",5.3
same,injury on a 0-9 point scale,"[1]; R128A_F420V (Event 1), 8.75 g ai/ha",6.0
same,injury on a 0-9 point scale,"[1]; R128A_F420V (Event 1), 17.5 g ai/ha",7.0
same,injury on a 0-9 point scale,"[1]; R128A_F420V (Event 1), 35 g ai/ha",7.0
same,injury on a 0-9 point scale,"[1]; R128A_F420V (Event 1), 70 g ai/ha",7.0
same,injury on a 0-9 point scale,"[1]; R128A_F420V (Event 1), 140 g ai/ha",6.5
same,injury on a 0-9 point scale,"[1]; R128A_F420V (Event 2), 4.375 g ai/ha",6.0
same,injury on a 0-9 point scale,"[1]; R128A_F420V (Event 2), 8.75 g ai/ha",6.5
same,injury on a 0-9 point scale,"[1]; R128A_F420V (Event 2), 17.5 g ai/ha",7.0
same,injury on a 0-9 point scale,"[1]; R128A_F420V (Event 2), 35 g ai/ha",7.0
same,injury on a 0-9 point scale,"[1]; R128A_F420V (Event 2), 70 g ai/ha",7.0
same,injury on a 0-9 point scale,"[1]; R128A_F420V (Event 2), 140 g ai/ha",8.0
same,injury on a 0-9 point scale,"[1]; R128A_F420V + Bradi_1g07930.1 (Event 1), 4.375 g ai/ha",0.3
same,injury on a 0-9 point scale,"[1]; R128A_F420V + Bradi_1g07930.1 (Event 1), 8.75 g ai/ha",0.3
same,injury on a 0-9 point scale,"[1]; R128A_F420V + Bradi_1g07930.1 (Event 1), 17.5 g ai/ha",1.5
same,injury on a 0-9 point scale,"[1]; R128A_F420V + Bradi_1g07930.1 (Event 1), 35 g ai/ha",2.0
same,injury on a 0-9 point scale,"[1]; R128A_F420V + Bradi_1g07930.1 (Event 1), 70 g ai/ha",2.7
same,injury on a 0-9 point scale,"[1]; R128A_F420V + Bradi_1g07930.1 (Event 1), 140 g ai/ha",1.3
same,injury on a 0-9 point scale,"[1]; R128A_F420V + Bradi_1g07930.1 (Event 2), 4.375 g ai/ha",1.0
same,injury on a 0-9 point scale,"[1]; R128A_F420V + Bradi_1g07930.1 (Event 2), 8.75 g ai/ha",2.3
same,injury on a 0-9 point scale,"[1]; R128A_F420V + Bradi_1g07930.1 (Event 2), 17.5 g ai/ha",1.5
same,injury on a 0-9 point scale,"[1]; R128A_F420V + Bradi_1g07930.1 (Event 2), 35 g ai/ha",1.0
same,injury on a 0-9 point scale,"[1]; R128A_F420V + Bradi_1g07930.1 (Event 2), 70 g ai/ha",3.0
same,injury on a 0-9 point scale,"[1]; R128A_F420V + Bradi_1g07930.1 (Event 2), 140 g ai/ha",3.0
same,injury on a 0-9 point scale,"[1]; wild type, 4.375 g ai/ha",8.0
same,injury on a 0-9 point scale,"[1]; wild type, 8.75 g ai/ha",8.0
same,injury on a 0-9 point scale,"[1]; wild type, 17.5 g ai/ha",8.0
same,injury on a 0-9 point scale,"[1]; wild type, 35 g ai/ha",8.3
same,injury on a 0-9 point scale,"[1]; wild type, 70 g ai/ha",8.3
same,injury on a 0-9 point scale,"[1]; wild type, 140 g ai/ha",8.3

# — patent US10968462B2, “Plants having increased tolerance to herbicides” (BASF AGRO B.V., priority 2013, dated 2021)
